Counter-ions that a name gives are not always drawn.
Legend:
[1] = test system: diarrhea model of irritable bowel syndrome induced by restraint stress in rats; test: Diarrhea of irritable bowel syndrome induced by restraint stress in rat; assay type: in vivo; settings: for number of fecal pellets excreted (result in words): high-, mid- and low-dose groups, compared with model control group; for Number of fecal pellets excreted in 1 h / Time for excreting glass ball: 7 days, restraint stress rats
Description: The restraint stress stimulus method was used to induce abnormal defecation in rats, thereby leading to increase of colon smooth muscle movement and accelerating intestinal transport.
The animals were randomly divided into 10 groups as follows: normal control group; model control group (normal saline); high-, mid- and low-dose groups of test drugs (albiflorin and paeoniflorin); and positive control groups (loperamide hydrochloride (Imodium™) and trimebutine maleate (Yuanshengliwei™)). Gavage administration was performed on each group once a day, for 7 consecutive days.
The rats were deprived of food for 24 hours before the test. Half an hour after the last administration, the rats were anesthetized with ethyl ether. After the rat fainted away, its front shoulder, front upper limbs and chest were bound with scotch tape to prevent the front upper limbs from scratching its face, but the movement of the front upper limbs was not limited. A glass ball with a diameter of 3 mm was placed into the rectum 3 cm away from anus. The rats were moved rapidly into cages which were padded with clean filter paper. Timing started when the rat woke up, and the binding time was one hour. The number of fecal pellets excreted by the rat in one hour and the time for excreting glass ball were recorded. Statistical analysis of data was performed using t-test for intergroup comparison.

[2] = test system: small intestine spasm models induced by Neostigmine in mice; test: Abdominal pain of irritable bowel syndrome in mice (Neostigmine small intestine spasm, carbon powder propulsion); assay type: in vivo; settings: for propulsive distance and propulsive rate of carbon powder suspension in mice intestine tract stimulated by Neostigmine (result in words): high-, mid- and low-dose groups, compared with pathology modeling control group; for Propulsive distance / Propulsive rate: 7 days, Neostigmine mice, carbon powder
Protocol: All the animals were deprived of food for 12 hours before the test. […] After 15 minutes, gavage administration of carbon powder paste was performed on all groups (0.2 ml/10 g body weight, each dosage contains 0.05 g of carbon powder and 0.02 g of carboxymethyl cellulose). The animals were killed 20 minutes later. The propulsive length of carbon powder in small intestine and the total length of small intestine were measured respectively, and then the propulsive rate of carbon powder was calculated. Statistical analysis of data was performed using t-test for intergroup comparison.
The propulsive distance: to measure the propulsive length of carbon powder in small intestine.
Propulsive rate (%)=(propulsive length/total length of small intestine)×100%.

[3] = test system: sleep time of mice induced by threshold dose of pentobarbital sodium; test: Sleep induced by pentobarbital sodium in mice; assay type: in vivo; settings: for Sleep time: 60 min before pentobarbital sodium 50 mg/kg i.p., mice; for sleep time of mice induced by threshold dose of pentobarbital sodium (result in words): compared with normal saline group
Protocol: Mice with a body weight of 18-22 g, male and female, were selected. Mice with a single-sex were used in each test. The mice were randomly divided into groups as follows: albiflorin group, diazepam group (positive control group) and control group (normal saline). There were 10 mice in each group. 60 minutes after the gavage administration, threshold dose of pentobarbital sodium (50 mg/kg) was injected intraperitoneally. The disappearance of righting reflex was recorded as time to fall asleep, and the period from the righting reflex being disappeared until the righting reflex being recovered was recorded as sleep duration time. Compared with the control group, the significance was determined by time t test.

[4] = test system: mice in light-dark shuttle box; test: Light-dark shuttle box test in mice (anti-anxiety test); assay type: in vivo; settings: for number of times of returning from the dark box back to the light box (result in words): albiflorin high-, mid- and low-dose groups, diazepam group, compared with normal control group; for Number of times of returning from dark box back to light box: 7 days, mice
Protocol: Mice were randomly divided into 5 groups, i.e. high-dose group of albiflorin (14 mg/kg/d), mid-dose group of albiflorin (7 mg/kg/d), low-dose group of albiflorin (3.5 mg/kg/d), diazepam group (2.5 mg/kg/d), and normal control group. Gavage administration was performed once a day, for 7 consecutive days. During the administration, animals had free access to food and water. The test was carried out 1 hour after the administration on Day 8.
Within the light-dark shuttle box (44 cm×21 cm×21 cm), the dark box accounts for one third thereof, with a cover on the top; and the light box accounts for two thirds thereof, with illumination brightness; and there is a hole between the two boxes for animal to pass through. During the test, mice were placed in the center of the light box, back to the dark box, and then observed. The number of times of entering into the dark box followed by returning to the light box in mice was counted, which was used as an index for the evaluation of anti-anxiety effect of a drug.
8.1.5 Statistical Analysis The data were expressed as X±SD, and the experimental results were analyzed by one-way ANOVA, using SPSS 11.5 statistical software.

[5] = test system: chronic unpredictable stress (CUS) model in rats; test: Chronic stress depression model in rats: open field test; settings: for Number of times of horizontal movement in open field / Number of times of vertical movement in open field: CUS rats, 5 min, Means±SEM; for number of times of horizontal movement of rats in open field (result in words) / number of times of vertical movement of rats in open field (result in words): compared with the model group
[6] = test system: chronic unpredictable stress (CUS) model in rats; test: Chronic stress depression model in rats: sucrose aqueous solution-drinking test; settings: for Sugar aqueous solution preference: 38 days, CUS rats, Means±SEM; for sugar aqueous solution preference of rats (result in words): compared with the model group

## C[C@]12C[C@@H](O)[C@@H]3C[C@@]1(O[C@@H]1O[C@H](CO)[C@@H](O)[C@H](O)[C@H]1O)[C@@]3(COC(=O)c1ccccc1)C(=O)O2 [Albiflorin]
[1]
  number of fecal pellets excreted (result in words): decreased obviously
[1]; high-dose, 9.8 mg/kg/d gavage
  Number of fecal pellets excreted in 1 h: 2.50 ± 1.27
  Time for excreting glass ball: 10.60 ± 17.58 min
[1]; low-dose, 2.45 mg/kg/d gavage
  Number of fecal pellets excreted in 1 h: 2.60 ± 1.84
  Time for excreting glass ball: 19.90 ± 17.69 min
[1]; mid-dose, 4.9 mg/kg/d gavage
  Number of fecal pellets excreted in 1 h: 1.80 ± 1.48
  Time for excreting glass ball: 12.00 ± 17.53 min
[2]
  propulsive distance and propulsive rate of carbon powder suspension in mice intestine tract stimulated by Neostigmine (result in words): decreased obviously
[2]; high-dose, 14 mg/kg/d gavage
  Propulsive distance: 22.80 ± 4.78 cm
  Propulsive rate: 57.47 ± 10.67 %
[2]; low-dose, 3.5 mg/kg/d gavage
  Propulsive distance: 22.10 ± 3.90 cm
  Propulsive rate: 57.05 ± 4.69 %
[2]; mid-dose, 7 mg/kg/d gavage
  Propulsive distance: 20.80 ± 4.64 cm
  Propulsive rate: 54.53 ± 9.39 %
[3]; 7 mg/kg gavage
  Sleep time: 90.2 ± 15.1 min
[3]; 14 mg/kg gavage
  Sleep time: 98.8 ± 12.4 min
[3]
  sleep time of mice induced by threshold dose of pentobarbital sodium (result in words): obviously prolong
[4]
  number of times of returning from the dark box back to the light box (result in words): significantly increase
[4]; high-dose, 14 mg/kg/d gavage
  Number of times of returning from dark box back to light box: 13.9 ± 3.23
[4]; low-dose, 3.5 mg/kg/d gavage
  Number of times of returning from dark box back to light box: 10.6 ± 3.42
[4]; mid-dose, 7 mg/kg/d gavage
  Number of times of returning from dark box back to light box: 12.1 ± 3.51
[5]; 3.5 mg/kg gavage once a day
  Number of times of horizontal movement in open field: 95.40 ± 9.23
  Number of times of vertical movement in open field: 20.50 ± 1.81
[5]; 3.5 mg/kg
  number of times of horizontal movement of rats in open field (result in words): obviously increased
[5]; 7.0 mg/kg and 14.0 mg/kg
  number of times of horizontal movement of rats in open field (result in words): can not obviously increase
[5]; 7.0 mg/kg gavage once a day
  Number of times of horizontal movement in open field: 98.20 ± 8.61
  Number of times of vertical movement in open field: 21.10 ± 2.17
[5]; 14.0 mg/kg gavage once a day
  Number of times of horizontal movement in open field: 104.10 ± 11.11
  Number of times of vertical movement in open field: 22.10 ± 2.66
[5]; 3.5-14.0 mg/kg
  number of times of vertical movement of rats in open field (result in words): obviously increased
[6]; 3.5 mg/kg gavage once a day
  Sugar aqueous solution preference: 60.04 ± 10.86%
[6]; 3.5 mg/kg
  sugar aqueous solution preference of rats (result in words): did not obviously increase
[6]; 7.0 mg/kg and 14.0 mg/kg
  sugar aqueous solution preference of rats (result in words): obviously increased
[6]; 7.0 mg/kg gavage once a day
  Sugar aqueous solution preference: 76.19 ± 5.35 %
[6]; 14.0 mg/kg gavage once a day
  Sugar aqueous solution preference: 78.12 ± 4.04 %

## C[C@@]12C[C@@]3(O)O[C@@H](O1)[C@]1(COC(=O)c4ccccc4)[C@H]3C[C@@]12O[C@@H]1O[C@H](CO)[C@@H](O)[C@H](O)[C@H]1O [Paeoniflorin, paeoniflorin, reference compound]
[1]
  number of fecal pellets excreted (result in words): only a trend to decrease
[1]; high-dose, 9.8 mg/kg/d gavage
  Number of fecal pellets excreted in 1 h: 3.71 ± 2.02
  Time for excreting glass ball: 10.70 ± 16.06 min
[1]; low-dose, 2.45 mg/kg/d gavage
  Number of fecal pellets excreted in 1 h: 4.10 ± 1.81
  Time for excreting glass ball: 10.64 ± 15.01 min
[1]; mid-dose, 4.9 mg/kg/d gavage
  Number of fecal pellets excreted in 1 h: 3.96 ± 1.36
  Time for excreting glass ball: 10.50 ± 14.03 min
[2]
  propulsive distance and propulsive rate of carbon powder suspension in mice intestine tract stimulated by Neostigmine (result in words): decreased only in high-dose group
[2]; high-dose, 14 mg/kg/d gavage
  Propulsive distance: 28.80 ± 3.79 cm
  Propulsive rate: 65.64 ± 8.80%
[2]; low-dose, 3.5 mg/kg/d gavage
  Propulsive distance: 31.80 ± 3.79 cm
  Propulsive rate: 72.64 ± 4.69%
[2]; mid-dose, 7 mg/kg/d gavage
  Propulsive distance: 31.00 ± 1.93 cm
  Propulsive rate: 71.92 ± 7.51%

## CNCCC(Oc1ccc(C(F)(F)F)cc1)c1ccccc1 (stereo not shown) [Flx, Fluoxetine, reference compound]
[5]; 10 mg/kg gavage once a day
  Number of times of horizontal movement in open field: 90.60 ± 7.72
  Number of times of vertical movement in open field: 20.80 ± 1.93
[5]; 10 mg/kg long-term gavage
  number of times of horizontal movement of rats in open field (result in words): obviously increased
  number of times of vertical movement of rats in open field (result in words): obviously increased
[6]; 10 mg/kg gavage once a day
  Sugar aqueous solution preference: 70.63 ± 6.86 %
[6]; 10 mg/kg long-term gavage
  sugar aqueous solution preference of rats (result in words): obviously increased

## trimebutine maleate
[1]; 6.25 mg/kg/d gavage
  Number of fecal pellets excreted in 1 h: 3.70 ± 2.26
  Time for excreting glass ball: 17.80 ± 21.88 min

## CN1C(=O)CN=C(c2ccccc2)c2cc(Cl)ccc21 [Diazepam, diazepam, reference compound]
[3]; 0.5 mg/kg gavage
  Sleep time: 96. ± 14.6 min
[3]; 1 mg/kg gavage
  Sleep time: 102.0 ± 16.2 min
[3]
  sleep time of mice induced by threshold dose of pentobarbital sodium (result in words): obviously prolong
[4]; 2.5 mg/kg/d gavage
  Number of times of returning from dark box back to light box: 13.6 ± 3.35
[4]
  number of times of returning from the dark box back to the light box (result in words): significantly increase

## CN(C)C(=O)C(CCN1CCC(O)(c2ccc(Cl)cc2)CC1)(c1ccccc1)c1ccccc1 [Loperamide hydrochloride, loperamide hydrochloride]
[1]; 0.17 mg/kg/d gavage
  Number of fecal pellets excreted in 1 h: 1.40 ± 0.97
  Time for excreting glass ball: 26.00 ± 28.30 min
